Test results as given in patent US12281332B2, “Methods of enhancing development of renal organoids and methods of using the same” (President and Fellows of Harvard College, priority 2017, dated 2025).
“Also recorded” adds a separate entry of the source.

Assays:
Type in all cases: cell-based, human
kidney organoids [1] = assay: Abundance of vasculature in kidney organoids, PECAM1/CD31 immunostaining and Angiotool; details: for effect on vasculature formation / vascular growth (summary of studies): FBS 1.5 to 2%; for effect on the CD31+ population of cells (extent and abundance of vasculature): developing organoids age 11-14 Days, additives in advanced RPMI, static and perfused conditions; for vessel % area: high FSS, endogenous VEGF vs VEGF addition vs VEGF inhibition
Method: Methods: To determine effects of chemical additives on the developing developing organoids, the vesicles (age 11, 12, 13 and 14 Days) were treated with VEGF additives, GMEC media, PMA additives, antibiotics, or FBS or FCS additives and other components in advanced RPMI media as a base in both static and perfused conditions. The extent and abundance of vasculature was studied using immunostaining.
Confocal Z-stacks of PECAM1 were taken of fixed whole mount organoids, both iPSC and ESC derived, in the various culture conditions. The Z-stacks were taken at the limit of the confocal depth with each sample, roughly […] per sample which represents approximately the same volume per organoid analyzed. Those z-stacks were then flattened using ImageJ to a 2D max intensity projection (as required by the Angiotool for input). The default settings were employed on the Angiotool for analysis and vessel diameters of 4, 7, 10, and 14 were analyzed for each organoid. In all cases, the whole organoid was used for analysis.

kidney organoids [2] = assay: Association of PECAM1+ vasculature with LTL+ tubules, Imaris analysis; details: for vasculotubular association (percent of vasculature surface area overlapping with LTL+ tubules): 10 days of high flow culture, VEGF 100 ng/mL or VEGF inhibitor in the media
Description: Additionally, enhanced PECAM1^+ networks under high FSS associate with tubular structures in both transverse and longitudinal orientations (FIG. 16(d) and FIG. 17). The researchers quantified the association between PECAM1^+ networks and LTL^+tubules using Imaris surface rendering, distance transformation, and masking tools and reveal that under high flow conditions the percent of vascular surface area in contact with tubules is increased nearly 3 fold in comparison to organoids in static culture (FIG. 17(d)).
Confocal Z-stacks of PECAM1 and LTL were taken of fixed whole mount organoids, both iPSC and ESC derived, in the various culture conditions. The Z-stacks were taken at the limit of the confocal depth with each sample, roughly […] per sample which represents approximately the same volume per organoid analyzed. Those z-stacks were then opened in Imaris imaging software. The confocal 3D rendering was turned into a vascular surface and a tubule surface. Then the Imaris surface on surface area contact tool was used to quantify the percent overlap between the vascular and tubular surfaces in 3D, values were reported in FIG. 17(d). In order to assess the average distance the vasculature was away from a tubule, first an Imaris distance transformation was performed on the tubule surface. Then the resulting channel was masked by the vascular surface to create a new masked distance transformation channel. That masked distance transformation channel was opened in Fiji (ImageJ) to retrieve a histogram of all the 3D points, from which we obtained a geometric mean for each sample which is reported in FIG. 17(c).

[3] = tested on: PODXL+ glomeruli-like compartments of kidney organoids; assay: Vascular invasion of PODXL+ podocyte clusters in kidney organoids on chip, confocal imaging; details: high FSS, 10 days on chip; bevacizumab, VEGF 100 ng/mL
Description: Glomerular structures of kidney organoids in static culture are largely avascular. Upon animal transplantation, host-derived vascularization of kidney organoids Promotes glomerular vascularization. To determine whether FSS-induced vascularization of organoids in vitro extends to glomerular compartments, PODXL^+ podocyte clusters invaded by MCAMI^+ PECAM1^+ vascular structures were quantified using confocal imaging, in static and high FSS conditions (FIG. 18A and FIG. 18B). […] Given that there is significant upregulation of VEGF-A expression with high FSS (FIG. 18C), organoids cultured under flow can be used to study the role of VEGF in glomerular vascularization in vitro.
As vessel % area is unchanged between endogenous VEGF, VEGF addition, and VEGF inhibition, the difference in glomerular vascularization cannot be attributed to increased abundance of vasculature alone. Meanwhile, the reduced junctional density and increased average vessel length in unperturbed VEGF conditions may be interpreted as vessels growing towards an endogenous VEGF gradient versus more random sporadic growth in the absence of a gradient. Growing with the endogenous VEGF gradient under high flow conditions may allow vessels to reach glomeruli-like compartments in time to invade rather than wrap Bowman's capsule-like structures. […]

Row | Molecule | effect on vasculature formation / vascular growth (summary of studies) (kidney organoids [1]) | effect on the CD31+ population of cells (extent and abundance of vasculature) (kidney organoids [1]) | vessel % area (kidney organoids [1]) | vasculotubular association (percent of vasculature surface area overlapping with LTL+ tubules) (kidney organoids [2]) | incidence of invasion of PODXL+ glomeruli-like compartments by PECAM1+MCAM+ vascular networks [3] | outgrowth of endothelial-like cells (kidney organoids [1]; addition of VEGF) | vascular abundance (kidney organoids [1]; culture under FSS, VEGF added in the media) | vascular abundance (kidney organoids [1]; static culture, exogenous VEGF) | average distance in 3D between the vasculature and the tubules (kidney organoids [2]; high flow+VEGF compared with static)
1 | CCCCCCCCCCCCCC(=O)O[C@@H]1[C@@H](C)[C@@]2(O)[C@@H](C=C(CO)C[C@]3(O)C(=O)C(C)=C[C@@H]23)[C@@H]2C(C)(C)[C@]12OC(C)=O [PMA, reference compound] | did not help | no measureable effects |  |  |  |  |  |  | 
2 | bevacizumab [reference compound] |  |  | unchanged | decouples these associations and returns values consistent with static culture levels; also recorded: negated | significantly reduced |  |  |  | 
3 | vascular endothelial growth factor [VEGF] | did not help | no measureable effects | unchanged | decouples these associations and returns values consistent with static culture levels; also recorded: negated | significantly reduced | robust outgrowth of endothelial-like cells | didn't change | did increase | not statistically significantly different
